{"source": "ChEMBL document CHEMBL5505975", "about": "“Design, synthesis and biological evaluation of CDC20 inhibitors for treatment of triple-negative breast cancer” (Eur J Med Chem, 2024)", "key": {"MDA-MB-231 [1]": {"test_system": "MDA-MB-231", "assay": "Antiproliferative activity against human MDA-MB-231 cells assessed as reduction in cell viability incubated for 96 hrs by MTT assay", "settings": "MDA-MB-231, 96 h"}, "A549": {"test_system": "A549", "assay": "Antiproliferative activity against human A549 cells assessed as reduction in cell viability incubated for 96 hrs by MTT assay", "settings": "A549, 96 h"}, "MDA-MB-231 [2]": {"test_system": "MDA-MB-231", "assay": "Cell cycle arrest in human MDA-MB-231 cells assessed as S phase cells at 20 uM incubated for 72 hrs by PI staining based flow cytometric analysis (reference value: 28.7%)", "type": "functional"}, "MDA-MB-231 [3]": {"test_system": "MDA-MB-231", "assay": "Cell cycle arrest in human MDA-MB-231 cells assessed as G2 phase cells at 20 uM incubated for 72 hrs by PI staining based flow cytometric analysis (reference value: 14.6%)", "type": "functional"}, "MDA-MB-231 [4]": {"test_system": "MDA-MB-231", "assay": "Cell cycle arrest in human MDA-MB-231 cells assessed as S phase cells at 10 uM incubated for 48 hrs by PI staining based flow cytometric analysis (reference value: 16.0%)", "type": "functional"}, "MDA-MB-231 [5]": {"test_system": "MDA-MB-231", "assay": "Effect on cell morphology in human MDA-MB-231 cells at 2.5 to 10 uM incubated for 24 hrs by wound healing assay", "type": "functional, cell-based", "settings": "dose 2.5-10 µM"}, "MDA-MB-231 [6]": {"test_system": "MDA-MB-231", "assay": "Induction of apoptosis in human MDA-MB-231 cells assessed as viable cells at 2.5 uM incubated for 48 hrs by Annexin V-FITC/PI staining based flow cytometric analysis (reference value: 95.10%)", "type": "functional", "settings": "read-out: Activity"}, "MDA-MB-231 [7]": {"test_system": "MDA-MB-231", "assay": "Induction of apoptosis in human MDA-MB-231 cells assessed as early apoptotic cells at 5 uM incubated for 48 hrs by Annexin V-FITC/PI staining based flow cytometric analysis (reference value: 2.25 %)", "type": "functional"}, "MDA-MB-231 [8]": {"test_system": "MDA-MB-231", "assay": "Induction of apoptosis in human MDA-MB-231 cells assessed as early apoptotic cells at 10 uM incubated for 48 hrs by Annexin V-FITC/PI staining based flow cytometric analysis (reference value: 2.25 %)", "type": "functional"}, "MDA-MB-231 [9]": {"test_system": "MDA-MB-231", "assay": "Induction of apoptosis in human MDA-MB-231 cells assessed as early apoptotic cells at 20 uM incubated for 48 hrs by Annexin V-FITC/PI staining based flow cytometric analysis (reference value: 2.25 %)", "type": "functional"}, "MDA-MB-231 [10]": {"test_system": "MDA-MB-231", "assay": "Induction of apoptosis in human MDA-MB-231 cells assessed as necrotic cells at 20 uM incubated for 48 hrs by Annexin V-FITC/PI staining based flow cytometric analysis (reference value: 1.63%)", "type": "functional"}, "[11]": {"assay": "Toxicity in female BALB/C mouse implanted with mouse 4T1 cells assessed as heart damage at 20 to 50 mg/kg, iv administered every two days for 21 days by H and E staining based analysis", "type": "organism-based", "settings": "in vivo, 504 h, dose 20-50 mg/kg, time 21 day"}, "[12]": {"assay": "Toxicity in female BALB/C mouse implanted with mouse 4T1 cells assessed as liver damage at 20 to 50 mg/kg, iv administered every two days for 21 days by H and E staining based analysis", "type": "organism-based", "settings": "in vivo, 504 h, dose 20-50 mg/kg, time 21 day"}, "[13]": {"assay": "Toxicity in female BALB/C mouse implanted with mouse 4T1 cells assessed as liver damage at 20 to 50 mg/kg, po administered every two days for 21 days by H and E staining based analysis", "type": "organism-based", "settings": "in vivo, 504 h, dose 20-50 mg/kg, time 21 day"}, "[14]": {"assay": "Toxicity in female BALB/C mouse implanted with mouse 4T1 cells assessed as change in serum BUN level at 20 to 50 mg/kg, po administered every two days for 21 days", "type": "organism-based", "settings": "in vivo, 504 h, dose 20-50 mg/kg, time 21 day"}, "[15]": {"assay": "Toxicity in female BALB/C mouse implanted with mouse 4T1 cells assessed as change in serum LDH level at 20 to 50 mg/kg, po administered every two days for 21 days", "type": "organism-based", "settings": "in vivo, 504 h, dose 20-50 mg/kg, time 21 day"}, "[16]": {"assay": "Toxicity in female BALB/C mouse implanted with mouse 4T1 cells assessed as change in number of platelets at 20 to 50 mg/kg, po administered every two days for 21 days by routine blood analysis", "type": "organism-based", "settings": "in vivo, 504 h, dose 20-50 mg/kg, time 21 day"}, "[17]": {"assay": "Toxicity in female BALB/C mouse implanted with mouse 4T1 cells assessed as change in number of platelets at 20 to 50 mg/kg, iv administered every two days for 21 days by routine blood analysis", "type": "organism-based", "settings": "in vivo, 504 h, dose 20-50 mg/kg, time 21 day"}, "[18]": {"assay": "Toxicity in female BALB/C mouse implanted with mouse 4T1 cells assessed as change in WBC level at 20 to 50 mg/kg, iv administered every two days for 21 days by routine blood analysis", "type": "organism-based", "settings": "in vivo, 504 h, dose 20-50 mg/kg, time 21 day"}}, "note": "Activity calls are given as the source filed them. The rule behind the calls is not given here."}
{"smiles": "CCC(=O)NC(n1cnc2c(Nc3cc(OC)c(OC)c(OC)c3)nc(N)nc21)C(Cl)(Cl)Cl", "note": "(centres undefined)", "values": [{"measurement": "IC50", "setting": "MDA-MB-231 [1]", "result": 1.43, "unit": "µM"}, {"measurement": "IC50", "setting": "A549", "result": 6.47, "unit": "µM"}, {"measurement": "Activity", "setting": "MDA-MB-231 [2]", "result": 12.5, "unit": "%"}, {"measurement": "Activity", "setting": "MDA-MB-231 [3]", "result": 51.1, "unit": "%"}, {"measurement": "Activity", "setting": "MDA-MB-231 [4]", "result": 11.9, "unit": "%"}, {"measurement": "Activity", "setting": "MDA-MB-231 [5]", "result": "inactive"}, {"measurement": "viability at 2.5 µM", "setting": "MDA-MB-231 [6]", "result": 95.7, "unit": "%"}, {"measurement": "Activity", "setting": "MDA-MB-231 [7]", "result": 4.37, "unit": "%"}, {"measurement": "Activity", "setting": "MDA-MB-231 [8]", "result": 4.54, "unit": "%"}, {"measurement": "Activity", "setting": "MDA-MB-231 [9]", "result": 5.41, "unit": "%"}, {"measurement": "Activity", "setting": "MDA-MB-231 [10]", "result": 0.99, "unit": "%"}, {"measurement": "Activity", "setting": "[11]", "result": "Non-Toxic"}, {"measurement": "Activity", "setting": "[12]", "result": "Non-Toxic"}, {"measurement": "Activity", "setting": "[13]", "result": "Non-Toxic"}, {"measurement": "Activity", "setting": "[14]", "result": "Non-Toxic"}, {"measurement": "Activity", "setting": "[15]", "result": "Non-Toxic"}, {"measurement": "Activity", "setting": "[16]", "result": "Non-Toxic"}, {"measurement": "Activity", "setting": "[17]", "result": "Non-Toxic"}, {"measurement": "Activity", "setting": "[18]", "result": "Non-Toxic"}]}
